Columns and labels:
Recombinant IKKα = target: T1, Recombinant IKKα (Homo sapiens, UniProt O15111); test: DELFIA IKKα kinase assay (apparent Ki, Cheng-Prusoff); format: biochemical
T1 construct: purchased Millipore, Dundee, UK
T1 sequence (O15111 1-745): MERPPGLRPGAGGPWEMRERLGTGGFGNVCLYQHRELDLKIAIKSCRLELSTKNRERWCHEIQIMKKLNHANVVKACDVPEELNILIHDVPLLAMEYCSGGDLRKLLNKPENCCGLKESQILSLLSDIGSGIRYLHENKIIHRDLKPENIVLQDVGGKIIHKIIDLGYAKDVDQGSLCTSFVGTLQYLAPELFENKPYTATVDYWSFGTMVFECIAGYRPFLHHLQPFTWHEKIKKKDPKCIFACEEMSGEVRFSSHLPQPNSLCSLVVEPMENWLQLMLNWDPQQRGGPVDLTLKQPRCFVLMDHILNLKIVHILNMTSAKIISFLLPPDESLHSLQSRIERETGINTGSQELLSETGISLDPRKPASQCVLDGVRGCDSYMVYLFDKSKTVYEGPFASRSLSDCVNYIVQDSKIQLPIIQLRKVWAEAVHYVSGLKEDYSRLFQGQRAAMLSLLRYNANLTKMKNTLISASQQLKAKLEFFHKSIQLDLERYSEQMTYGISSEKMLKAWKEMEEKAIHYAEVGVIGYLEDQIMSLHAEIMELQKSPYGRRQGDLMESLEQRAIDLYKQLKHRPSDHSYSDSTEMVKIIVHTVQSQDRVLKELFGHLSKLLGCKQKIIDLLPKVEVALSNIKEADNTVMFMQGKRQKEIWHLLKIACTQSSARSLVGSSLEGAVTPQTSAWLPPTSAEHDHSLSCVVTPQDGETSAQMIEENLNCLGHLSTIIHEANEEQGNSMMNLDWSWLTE
Outline: (§1)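 DELFIA time-resolved fluorescence (ex 340/em 615 nm) quantified phosphorylation of a biotinylated IκB-α Ser32 peptide (0.375 μM) by 37 nM recombinant IKKα or IKKβ. Reactions used 40 μM ATP, Tris pH 7.5 buffer with MgCl2, DTT and BSA, 60 min at 30° C. Cheng-Prusoff equation gave apparent Ki.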

Recombinant IKKβ = target: T2, Recombinant IKKβ (Homo sapiens, UniProt O14920); test: DELFIA IKKβ kinase assay (apparent Ki, Cheng-Prusoff); format: biochemical
T2 construct: purchased Millipore, Dundee, UK
T2 sequence (O14920 1-756): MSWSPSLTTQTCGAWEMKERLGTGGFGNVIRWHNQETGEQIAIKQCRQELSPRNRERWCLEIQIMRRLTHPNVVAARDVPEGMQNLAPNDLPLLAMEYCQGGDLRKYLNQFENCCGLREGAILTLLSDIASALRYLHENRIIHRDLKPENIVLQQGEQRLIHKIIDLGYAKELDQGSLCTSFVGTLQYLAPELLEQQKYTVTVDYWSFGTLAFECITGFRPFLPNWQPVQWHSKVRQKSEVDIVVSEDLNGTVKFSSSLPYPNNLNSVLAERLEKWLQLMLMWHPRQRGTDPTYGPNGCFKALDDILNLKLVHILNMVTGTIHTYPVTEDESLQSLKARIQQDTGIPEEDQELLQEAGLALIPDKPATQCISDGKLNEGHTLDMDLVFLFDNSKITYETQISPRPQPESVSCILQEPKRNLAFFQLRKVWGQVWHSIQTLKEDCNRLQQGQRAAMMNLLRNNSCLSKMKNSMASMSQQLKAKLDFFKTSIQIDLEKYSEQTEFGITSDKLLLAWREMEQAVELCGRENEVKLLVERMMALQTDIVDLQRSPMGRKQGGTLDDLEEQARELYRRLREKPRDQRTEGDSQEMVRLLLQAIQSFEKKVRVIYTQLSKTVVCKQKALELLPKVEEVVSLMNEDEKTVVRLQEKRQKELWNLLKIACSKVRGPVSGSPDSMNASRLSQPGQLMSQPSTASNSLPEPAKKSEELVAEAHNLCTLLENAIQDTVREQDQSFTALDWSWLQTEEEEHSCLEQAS
Outline: as §1

[1] = non-italicised figure: DELFIA assay
[2] = DELFIA assay (first line of an example)

Row | SMILES | Ki (Recombinant IKKα; [1]) | Ki (Recombinant IKKβ; [1]) | Ki (Recombinant IKKα; [2]) | Ki (Recombinant IKKβ; [2])
1 | Nc1cc(-c2cc(-c3ccc(S(N)(=O)=O)cc3)c3[nH]nc(N)c3c2)ccn1 [Example 121, 4-(3-Amino-5-(2-aminopyridin-4-yl)-1H-indazol-7-yl)benzenesulfonamide] | 27 nM | 1480 nM | – | –
2 | Nc1n[nH]c2c(Cl)cc(-c3ccnc4[nH]c(CCN5CCOCC5)cc34)cc12 [Example 277, 7-Chloro-5-(2-(2-morpholinoethyl)-1H-pyrrolo[2,3-b]pyridin-4-yl)-1H-indazol-3-amine] | – | – | 1 nM | 51 nM
3 | Nc1n[nH]c2c(Cl)cc(-c3ccnc4[nH]c(CC5CCCCC5)cc34)cc12 [Example 275, 7-Chloro-5-(2-(cyclohexylmethyl)-1H-pyrrolo[2,3-b]pyridin-4-yl)-1H-indazol-3-amine] | – | – | 37 nM | 376 nM
4 | CCOC(=O)c1cccc(-c2cc(-c3ccnc(N)c3)cc3c(N)n[nH]c23)c1 [Example 112, Ethyl 3-(3-amino-5-(2-aminopyridin-4-yl)-1H-indazol-7-yl)benzoate] | 152 nM | 1470 nM | – | –
5 | Nc1n[nH]c2ccc(-c3ccnc(NC(=O)Nc4cccc(OCc5ccc(F)cc5)c4)c3)cc12 [Example 58, 1-(4-(3-Amino-1H-indazol-5-yl)pyridin2-yl)-3-(3-((4-fluorobenzyl)oxy)phenyl)urea] | 80 nM | 1970 nM | – | –
6 | CC(C)(O)C#Cc1cc(-c2ccnc(NC3COC3)c2)cc2c(N)n[nH]c12 [Example 287, 4-(3-Amino-5-(2-(oxetan-3-ylamino)pyridin-4-yl)-1H-indazol-7-yl)-2-methylbut-3-yn-2-ol] | – | – | 93 nM | 2050 nM
7 | CC(C)(C)C#Cc1cc(-c2ccnc(NC3CCC3)c2)cc2c(N)n[nH]c12 [Example 154, 5-(2-(Cyclobutylamino)pyridin-4-yl)-7-(3,3-dimethylbut-1-yn-1-yl)-1H-indazol-3-amine] | 120 nM | 1690 nM | – | –
8 | Nc1n[nH]c2c(C#CCCN3CCCCC3)cc(-c3ccnc4[nH]ccc34)cc12 [Example 211, 7-(4-(Piperidin-1-yl)but-1-yn-1-yl)-5-(1H-pyrrolo[2,3-b]pyridin-4-yl)-1H-indazol-3-amine] | – | – | 19 nM | 356 nM
9 | Nc1cc(-c2cc(C#CC3CCOCC3)c3[nH]nc(N)c3c2)ccn1 [Example 142, 5-(2-Aminopyridin-4-yl)-7-((tetrahydro-2H-pyran-4-yl)ethynyl)-1H-indazol-3-amine] | 20 nM | 700 nM | – | –
10 | Nc1cc(-c2cc(-c3cccc(F)c3)c3[nH]nc(N)c3c2)ccn1 [Example 105, 5-(2-Aminopyridin-4-yl)-7-(3-fluorophenyl)-1H-indazol-3-amine] | 40 nM | 500 nM | – | –
11 | Nc1n[nH]c2c(Cl)cc(-c3ccnc4[nH]c(CN5CCOCC5)cc34)cc12 [Example 276, 7-Chloro-5-(2-(morpholinomethyl)-1H-pyrrolo[2,3-b]pyridin-4-yl)-1H-indazol-3-amine] | – | – | 4 nM | 70 nM
12 | CC(C)(O)C#Cc1cc(-c2ccnc(NC(=O)C3CC3)c2)cc2c(N)n[nH]c12 [Example 290, N-(4-(3-Amino-7-(3-hydroxy-3-methylbut-1-yn-1-yl)-1H-indazol-5-yl)pyridin-2-yl)cyclopropanecarboxamide] | – | – | 55 nM | 242 nM
13 | CC(C)C(=O)Nc1cc(-c2cc(C#CC(C)(C)C)c3[nH]nc(N)c3c2)ccn1 [Example 168, N-(4-(3-Amino-7-(3,3-dimethylbut-1-yn-1-yl)-1H-indazol-5-yl)pyridin-2-yl)isobutyramide] | 273 nM | 2580 nM | – | –
14 | CC(C)(C)C#Cc1cc(-c2ccnc(NC3CC3)c2)cc2c(N)n[nH]c12 [Example 153, 5-(2-(Cyclopropylamino)pyridine-4-yl)-7-(3,3-dimethylbut-1-yn-1-yl)-1H-indazol-3-amine] | 4 nM | 100 nM | – | –
15 | COC(=O)Nc1cc(-c2cc(C#CC3CCOCC3)c3[nH]nc(N)c3c2)ccn1 [Example 285] | – | – | 37 nM | 274 nM
16 | Nc1cc(-c2cc(-c3ccccc3Cl)c3[nH]nc(N)c3c2)ccn1 [Example 124, 5-(2-Aminopyridin-4-yl)-7-(2-chlorophenyl)-1H-indazol-3-amine] | 224 nM | 1760 nM | – | –
17 | Nc1cc(-c2cc(-c3ccncc3)c3[nH]nc(N)c3c2)ccn1 [Example 128, 5-(2-Aminopyridin-4-yl)-7-(pyridin-4-yl)-1H-indazol-3-amine] | 35 nM | 1300 nM | – | –

Now from value to compound:

Row | Ki (Recombinant IKKα; [1]) | Ki (Recombinant IKKβ; [1]) | Ki (Recombinant IKKα; [2]) | Ki (Recombinant IKKβ; [2]) | SMILES
18 | 70 nM | 4100 nM | – | – | CCCNC(=O)Nc1cc(-c2ccc3[nH]nc(N)c3c2)ccn1 [Example 37, 1-(4-(3-Amino-1H-indazol-5-yl)pyridin-2-yl)-3-propylurea]
19 | – | – | 6 nM | 45 nM | Nc1n[nH]c2c(-c3ccoc3)cc(-c3ccnc4[nH]ccc34)cc12 [Example 199, 7-(Furan-3-yl)-5-(1H-pyrrolo[2,3-b]pyridin-4-yl)-1H-indazol-3-amine]
20 | – | – | 30 nM | 1630 nM | CN(C)CCNCc1cc2c(-c3ccc4[nH]nc(N)c4c3)ccnc2[nH]1 [Example 255, N^1-((4-(3-Amino-1H-indazol-5-yl)-1H-pyrrolo[2,3-b]pyridin-2-yl)methyl)-N2,N2-dimethylethane-1,2-diamine]
21 | 34 nM | 754 nM | – | – | COCCCNc1cc(-c2ccc3[nH]nc(N)c3c2)ccn1 [Example 26, 5-(2-((3-Methoxypropyl)amino)pyridine-4-yl)-1H-indazol-3-amine]
22 | – | – | 614 nM | 3790 nM | COC(=O)Nc1cc(-c2cc(-c3ccc(C(N)=O)cc3)c3[nH]nc(N)c3c2)ccn1 [Example 327, Methyl (4-(3-amino-7-(4-carbamoylphenyl)-1H-indazol-5-yl)pyridin-2-yl)carbamate]
23 | 76 nM | 587 nM | – | – | CC(C)Nc1cc(-c2ccc3[nH]nc(N)c3c2)ccn1 [Example 14, 5-(2-(Isopropylamino)pyridin-4-yl)-1H-indazol-3-amine]
24 | 42 nM | 1190 nM | – | – | Nc1n[nH]c2ccc(-c3ccnc(NC(=O)Nc4cccnc4)c3)cc12 [Example 69, 1-(4-(3-Amino-1H-indazol-5-yl)pyridin-2-yl)-3-(pyridin-3-yl)urea]
25 | – | – | 9 nM | 419 nM | COC(=O)c1cc2c(-c3ccc4[nH]nc(N)c4c3)ccnc2[nH]1 [Example 231, Methyl 4-(3-amino-1H-indazol-5-yl)-1H-pyrrolo[2,3-b]pyridine-2-carboxylate]
26 | 46 nM | 630 nM | – | – | Nc1n[nH]c2ccc(-c3ccnc(NCCO)c3)cc12 [Example 20, 2-((4-(3-Amino-1H-indazol-5-yl)pyridine-2-yl)amino)ethan-1-ol]
27 | 76 nM | 840 nM | – | – | Nc1n[nH]c2ccc(-c3ccnc(NC(=O)NCc4cccnc4)c3)cc12 [Example 48, 1-(4-(3-Amino-1H-indazol-5-yl)pyridin-2-yl)-3-(pyridin-3-ylmethyl)urea]
28 | 27 nM | 419 nM | – | – | CS(=O)(=O)c1ccc(NC(=O)Nc2cc(-c3ccc4[nH]nc(N)c4c3)ccn2)cc1 [Example 65, 1-(4-(3-Amino-1H-indazol-5-yl)pyridin-2-yl)-3-(4-(methylsulfonyl)phenyl)urea]
29 | 114 nM | 970 nM | – | – | Nc1n[nH]c2ccc(-c3ccnc(NC(=O)NC4CCCC4)c3)cc12 [Example 39, 1-(4-(3-Amino-1H-indazol-5-yl)pyridin-2-yl)-3-cyclopentylurea]
30 | – | – | 18 nM | 389 nM | COCCNCc1cc2c(-c3ccc4[nH]nc(N)c4c3)ccnc2[nH]1 [Example 254, 5-(2-(((2-Methoxyethyl)amino)methyl)-1H-pyrrolo[2,3-b]343yridine-4-yl)-1H-indazol-3-amine]

Reference: patent US20250304576A1 (Cancer Research Technology Limited, priority 2022, published 2025)
